Test results from patent US9353082B2, “Pharmaceutical compounds” (BIAL—PORTELA & CA, S.A., priority 2008, dated 2016).
Counter-ions that a name gives are not always drawn.

Assays:
FAAH [1] = target: T1, FAAH (Mus musculus, UniProt O08914); assay: In vivo FAAH inhibition after oral dosing, remaining activity in brain homogenate (BRh, central nervous tissue); design: species or system NMRI mice; conditions: brain homogenate, low value = strong inhibitor; for In Vivo BRh 3 mg·kg 8 h (remaining FAAH activity, % of control): 8 h after dosing; for In Vivo BRh 3 mg · kg · 8 h (remaining FAAH activity): 3 mg/kg oral
T1 construct: A fragment of liver, left lung lobe and brain without cerebellum were removed; from tissue; host or cells: male NMRI mice; brain (without cerebellum) and liver homogenates
T1 sequence (O08914 1-579): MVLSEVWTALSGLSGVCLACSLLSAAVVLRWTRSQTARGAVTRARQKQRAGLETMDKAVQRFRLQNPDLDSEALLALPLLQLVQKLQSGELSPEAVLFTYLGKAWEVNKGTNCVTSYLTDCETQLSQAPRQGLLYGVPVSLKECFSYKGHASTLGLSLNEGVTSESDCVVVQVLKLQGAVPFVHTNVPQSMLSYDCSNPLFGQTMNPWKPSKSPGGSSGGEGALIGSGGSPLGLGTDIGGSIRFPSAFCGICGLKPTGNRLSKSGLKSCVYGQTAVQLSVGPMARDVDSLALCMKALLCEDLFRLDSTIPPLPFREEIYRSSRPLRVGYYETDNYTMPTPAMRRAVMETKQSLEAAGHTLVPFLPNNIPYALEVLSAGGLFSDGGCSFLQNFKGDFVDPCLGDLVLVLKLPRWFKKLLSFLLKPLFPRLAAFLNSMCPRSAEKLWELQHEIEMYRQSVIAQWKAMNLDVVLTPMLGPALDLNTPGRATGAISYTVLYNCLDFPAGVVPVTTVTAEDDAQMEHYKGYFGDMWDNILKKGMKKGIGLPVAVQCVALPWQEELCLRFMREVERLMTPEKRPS
Protocol: (§1) The in vivo test was performed according to the protocol described below. BRh indicates inhibition in central nervous tissue and LVh indicates inhibition in peripheral tissue, in this case liver.
(§2) The animals used for experiments were male NMRI mice (weighing 27-44 g) obtained from Interfauna Ibérica (Spain). Mice were kept 5 per cage, under controlled environmental conditions (12 hr light/dark cycle and room temperature 22±1° C.). Food and tap water were allowed ad libitum and the experiments were all carried out during daylight hours.
(§3) Animals were administered 30 mg/kg or 3 mg/kg compounds of the invention via oral route (8 ml/kg; compound suspended in 0.5% carboxymethylcellulose (CMC) or solubilized in water) or vehicle (controls) using animal feeding stainless steel curve needles (Perfectum, U.S.A.). Fifteen minutes before sacrifice animal were anesthetized with pentobarbital 60 mg/kg administered intraperitoneally. A fragment of liver, left lung lobe and brain without cerebellum were removed and put in plastic vials containing membrane buffer (3 mM MgCl2, 1 mM EDTA, 50 mM Tris HCl pH 7.4). Tissues were stored at −30° C. until analysis.
(§4) Animals were always fasted overnight before administration of compounds except for time points of >18 h, where food was removed on the morning of day of administration and the compound was administered in the afternoon of the same day. Animals were then given water but nothing else.
(§5) Tissues were thawed on ice and were homogenized in 10 volumes of membrane buffer (3 mM MgCl2, 1 mM EDTA, 50 mM Tris HCl pH 7.4) with either Potter-Elvejhem (brains—8 strokes at 500 rpm) or Heidolph Diax (livers—2 strokes at position 5 for 20 sec with 30 sec pauses).
(§6) Total protein in tissues was determined with the BioRad Protein Assay (BioRad) using a standard curve of BSA (50-250 μg/ml).
(§7) Reaction mix (total volume of 200 μl) contained: […] (2 μM AEA+5 nM ^3H-AEA), 0.1% fatty acid free BSA, 15 μg (brain), 5 μg (liver) or 50 μg (lung) protein, in 1 mM EDTA, 10 mM Tris pH 7.6. After a […] pre-incubation period at 37° C., reaction was started by the addition of the substrate solution (cold AEA+radiolabelled AEA+BSA). Reaction was carried out for 10 min (brain and lung) or […] (liver) before termination by the addition of 400 μl activated charcoal suspension (8 g charcoal in 32 ml 0.5 M HCl in continuous agitation). After a […] incubation period at room temperature with agitation, charcoal was sedimented by centrifugation in microfuge (10 min at 13000 rpm). 200 μl of the supernatant were added to 800 μl Optiphase Supermix scintillation cocktail previously distributed in 24-well plates. Counts per minute (cpm) were determined in a MicrobetaTriLux scintillation counter.
(§8) In each assay blanks (without protein) were prepared.
(§9) The percentage of remaining enzymatic activity was calculated in respect to controls and after blank subtraction.

FAAH [2] = target: T1, FAAH; assay: In vivo FAAH inhibition after oral dosing, remaining activity in liver homogenate (LVh, peripheral tissue); design: species or system NMRI mice; conditions: liver homogenate, low value = strong inhibitor; for In Vivo LVh 3 mg·kg 8 h (remaining FAAH activity, % of control): 8 h after dosing; for In Vivo LVh 3 mg · kg · 8 h (remaining FAAH activity): 3 mg/kg oral
Protocol: as §1, §2, §3, §4, §5, §6, §7, §8, §9

SMILES	In Vivo BRh 3 mg·kg 8 h (remaining FAAH activity, % of control) (FAAH [1])	In Vivo LVh 3 mg·kg 8 h (remaining FAAH activity, % of control) (FAAH [2])	In Vivo BRh 3 mg · kg · 8 h (remaining FAAH activity) (FAAH [1])	In Vivo LVh 3 mg · kg · 8 h (remaining FAAH activity) (FAAH [2])
CN(C(=O)n1cnc(-c2cccc(-c3cccc(C(N)=O)c3)c2)c1)C1CCN(Cc2ccccc2)CC1 [Compound 550, N-(1-benzylpiperidin-4-yl)-4-(3′-carbamoylbiphenyl-3-yl)-N-methyl-1H-imidazole-1-carboxamide]			94.3 % of control	5.7 % of control
CN(C(=O)n1cnc(-c2ccc(O)cc2)c1)C1CCN(Cc2ccccc2)CC1 [Compound no. 451, N-(1-benzylpiperidin-4-yl)-4-(4-hydroxyphenyl)-N-methyl-1H-imidazole-1-carboxamide hydrobromide]	1.1 % of control	0.3 % of control		
COc1ccc(-c2cn(C(=O)N(C)C3CCN(Cc4ccccc4)CC3)cn2)cc1 [Compound no. 419, N-(1-benzylpiperidin-4-yl)-4-(4-methoxyphenyl)-N-methyl-1H-imidazole-1-carboxamide]	0.8 % of control	1 % of control		
CCN1CCC(N(C)C(=O)n2cnc(-c3cccc([N+](=O)[O-])c3)c2)CC1 [Compound no. 509, N-(1-ethylpiperidin-4-yl)-N-methyl-4-(3-nitrophenyl)-1H-imidazole-1-carboxamide]			78.3 % of control	17.2 % of control
CCCN1CCC(N(C)C(=O)n2cnc(-c3cccc(OC)c3)c2)CC1 [Compound no. 498, 4-(3-methoxyphenyl)-N-methyl-N-(1-propylpiperidin-4-yl)-1H-imidazole-1-carboxamide]			21.4 % of control	12.6 % of control
CC1(C)OC(c2ccccc2)CN1C(=O)n1cnc(-c2ccccc2)c1 (stereo not drawn) [Compound 298, (2,2-dimethyl-5-phenyloxazolidin-3-yl)(4-phenyl-1H-imidazol-1-yl)methanone]	74.4 % of control	59.2 % of control		
CN(C(=O)n1cnc(-c2cccc(-c3ccccc3)c2)c1)C12CC3CC(CC(C3)C1)C2 [Compound 290, 4-biphenyl-3-yl-N-methyl-N-tricyclo[3.3.1.13,7]dec-1-yl-1H-imidazole-1-carboxamide]	115 % of control	112.4 % of control		
CN(C(=O)n1cnc(-c2cccc(C(=O)NO)c2)c1)C1CCN(Cc2ccccc2)CC1 [Compound no. 423, N-(1-benzylpiperidin-4-yl)-4-(3-(hydroxycarbamoyl)phenyl)-N-methyl-1H-imidazole-1-carboxamide]	90 % of control	2.1 % of control		
CCN1CCC(N(C)C(=O)n2cnc(-c3ccc(O)c(F)c3)c2)CC1 [Compound no. 536, N-(1-ethylpiperidin-4-yl)-4-(3-fluoro-4-hydroxyphenyl)-N-methyl-1H-imidazole-1-carboxamide]			74.6 % of control	18.3 % of control
CN(C(=O)n1cnc(-c2cccnc2)c1)C1CCN(CC(=O)O)CC1 [Compound 558, 2-(4-(N-methyl-4-(pyridin-3-yl)-1H-imidazole-1-carboxamido)piperidin-1-yl)acetic acid]			83.1 % of control	91.1 % of control
CC1(C)COCN1C(=O)n1cnc(-c2ccc(O)c(N)c2)c1.Cl [Compound no. 358, (4-(3-amino-4-hydroxyphenyl)-1H-imidazol-1-yl)(4,4-dimethyloxazolidin-3-yl)methanone hydrochloride]	117.1 % of control	81.2 % of control		

Second part, the molecule after the results:

In Vivo BRh 3 mg·kg 8 h (remaining FAAH activity, % of control) (FAAH [1])	In Vivo LVh 3 mg·kg 8 h (remaining FAAH activity, % of control) (FAAH [2])	In Vivo BRh 3 mg · kg · 8 h (remaining FAAH activity) (FAAH [1])	In Vivo LVh 3 mg · kg · 8 h (remaining FAAH activity) (FAAH [2])	SMILES
92.1 % of control	15.1 % of control			COc1ccc(-c2cn(C(=O)N(C)C3CCCCC3)cn2)cc1NS(C)(=O)=O [Compound no. 485, N-cyclohexyl-4-(4-methoxy-3-(methylsulfonamido)phenyl)-N-methyl-1H-imidazole-1-carboxamide]
		88.5 % of control	69.8 % of control	CN(C(=O)n1cnc(-c2cccc(C(=O)NO)c2)c1)[C@H]1CC[C@H](O)CC1 [Compound 566, 4-(3-(hydroxycarbamoyl)phenyl)-N-((1r,4r)-4-hydroxycyclohexyl)-N-methyl-1H-imidazole-1-carboxamide]
96.9 % of control	115.8 % of control			CN(C(=O)n1cnc(-c2ccc3c(c2)[nH]c(=O)n3Cc2ccccc2)c1)C1CCCCC1 [Compound no. 426, 4-(1-benzyl-2-oxo-2,3-dihydro-1H-benzo[d]imidazol-5-yl)-N-cyclohexyl-N-methyl-1H-imidazole-1-carboxamide]
66.8 % of control	16.3 % of control			CN(C(=O)n1cnc(-c2ccc(/C(N)=N/O)cc2)c1)C1CCCCC1 [Compound no. 406, (Z)—N-cyclohexyl-4-(4-(N′-hydroxycarbamimidoyl)phenyl)-N-methyl-1H-imidazole-1-carboxamide]
94.4 % of control	58.6 % of control			CN(C(=O)n1cnc(-c2ccc(O)c(-c3nn[nH]n3)c2)c1)C1CCCCC1 [Compound no. 439, N-cyclohexyl-4-(4-hydroxy-3-(2H-tetrazol-5-yl)phenyl)-N-methyl-1H-imidazole-1-carboxamide]
		101.7 % of control	34 % of control	COc1ccc(-c2cn(C(=O)N(C)C3CCCCC3)cn2)cc1/C(N)=N\O [Compound no. 507, (E)—N-cyclohexyl-4-(3-(N′-hydroxycarbamimidoyl)-4-methoxyphenyl)-N-methyl-1H-imidazole-1-carboxamide]
1.4 % of control	1.4 % of control			CN(C(=O)n1cnc(-c2ccc(O)cc2)c1)C1CCCC1 [Compound 294, N-cyclopentyl-4-(4-hydroxyphenyl)-N-methyl-1H-imidazole-1-carboxamide]
